A short description of this assay: Dose required for antitumor efficacy tested in vivo against primary kidney tumors in murine renal carcinoma (RENCA). Format: functional, Mus musculus.

Each structure is given as a SMILES string.

`COc1cccc2c1C(=O)c1c(O)c3c(c(O)c1C2=O)C[C@@](O)(/C(CO)=N/NC(=O)Cc1ccc(N2C(=O)C=CC2=O)cc1)C[C@@H]3OC1CC(C)C(O)C(N)C1.Cl` (stereo partly specified): the Dose turned out to be 80 mM/kg.
